From paper PMC6978363, “Chaperone mediated detection of small molecule target binding in cells” (Nature Communications, 2020)

Tests used:
Experiment in all cases: biochemical
Settings in all cases: read-out: % Inhibition (at 10mM)
[1] = target: T1, CK1_delta (Homo sapiens, UniProt P48730)
T1 construct: gene CSNK1D

[2] = target: T2, p38_delta (Homo sapiens, UniProt O15264)
T2 construct: gene MAPK13

[3] = target: T3, PKC_beta1 (Homo sapiens, UniProt P05771)
T3 construct: gene PRKCB; isoform beta1

[4] = target: PAK1 (Homo sapiens, UniProt Q13153)
[5] = target: GRK3 (Homo sapiens, UniProt P35626)
[6] = target: T4, CamKII_alpha (Homo sapiens, UniProt Q9UQM7)
T4 construct: gene CAMK2A

[7] = target: T5, ZAP-70 (Homo sapiens, UniProt P43403)
T5 construct: gene ZAP70

[8] = target: Ret (Homo sapiens, UniProt P07949)
[9] = target: PRKAA1 (Homo sapiens, UniProt Q13131)
[10] = target: T6, IKK_epsilon (Homo sapiens, UniProt Q14164)
T6 construct: gene IKBKE

[11] = target: T7, MST4 (Homo sapiens, UniProt Q9P289)
T7 construct: gene STK26

[12] = target: ROCK1 (Homo sapiens, UniProt Q13464)
[13] = target: SRPK2 (Homo sapiens, UniProt P78362)
[14] = target: PLK2 (Homo sapiens, UniProt Q9NYY3)
[15] = target: SGK2 (Homo sapiens, UniProt Q9HBY8)
[16] = target: Fyn (Homo sapiens, UniProt P06241)
[17] = target: T8, Rse (Homo sapiens, UniProt Q06418)
T8 construct: gene TYRO3

[18] = target: T9, DCAMKL2 (Homo sapiens, UniProt Q8N568)
T9 construct: gene DCLK2

[19] = target: Syk (Homo sapiens, UniProt P43405)
[20] = target: PLK1 (Homo sapiens, UniProt P53350)
[21] = target: T10, Hyl (Homo sapiens, UniProt P42679)
T10 construct: gene MATK

[22] = target: T11, TrkC (Homo sapiens, UniProt Q16288)
T11 construct: gene NTRK3

[23] = target: SRPK1 (Homo sapiens, UniProt Q96SB4)
[24] = target: Blk (Homo sapiens, UniProt P51451)
[25] = target: T12, Ron (Homo sapiens, UniProt Q04912)
T12 construct: gene MST1R

[26] = target: EphB3 (Homo sapiens, UniProt P54753)
[27] = target: Src (Homo sapiens, UniProt P12931)
[28] = target: FGFR3 (Homo sapiens, UniProt P22607)
[29] = target: T13, PDGFR_alpha (Homo sapiens, UniProt P16234)
T13 construct: gene PDGFRA

[30] = target: T14, CHK2 (Homo sapiens, UniProt O96017)
T14 construct: gene CHEK2

[31] = target: T15, CamKII_delta (Homo sapiens, UniProt Q13557)
T15 construct: gene CAMK2D

[32] = target: T16, CK1_gamma3 (Homo sapiens, UniProt Q9Y6M4)
T16 construct: gene CSNK1G3

[33] = target: SBK1 (Homo sapiens, UniProt Q52WX2)
[34] = target: T17, Aurora_C (Homo sapiens, UniProt Q9UQB9)
T17 construct: gene AURKC

[35] = target: EphA1 (Homo sapiens, UniProt P21709)
[36] = target: T18, CaMKII_beta (Homo sapiens, UniProt Q13554)
T18 construct: gene CAMK2B

[37] = target: AKT1 (Homo sapiens, UniProt P31749)
[38] = target: IRAK4 (Homo sapiens, UniProt Q9NWZ3)

T4 sequence (Q9UQM7 whole entry): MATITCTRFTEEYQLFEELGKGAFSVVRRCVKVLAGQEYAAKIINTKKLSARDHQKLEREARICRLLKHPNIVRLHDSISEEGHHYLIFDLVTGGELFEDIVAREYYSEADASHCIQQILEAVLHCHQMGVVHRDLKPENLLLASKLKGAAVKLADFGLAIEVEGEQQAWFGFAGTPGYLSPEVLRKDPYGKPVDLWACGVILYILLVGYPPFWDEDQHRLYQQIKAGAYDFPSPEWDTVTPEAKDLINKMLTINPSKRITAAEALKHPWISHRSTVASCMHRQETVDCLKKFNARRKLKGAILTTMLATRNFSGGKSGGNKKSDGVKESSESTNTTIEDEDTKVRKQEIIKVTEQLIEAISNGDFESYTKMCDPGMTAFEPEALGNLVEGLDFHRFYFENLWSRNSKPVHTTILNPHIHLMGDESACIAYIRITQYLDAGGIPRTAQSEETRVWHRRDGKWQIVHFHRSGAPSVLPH
T12 sequence (Q04912 whole entry): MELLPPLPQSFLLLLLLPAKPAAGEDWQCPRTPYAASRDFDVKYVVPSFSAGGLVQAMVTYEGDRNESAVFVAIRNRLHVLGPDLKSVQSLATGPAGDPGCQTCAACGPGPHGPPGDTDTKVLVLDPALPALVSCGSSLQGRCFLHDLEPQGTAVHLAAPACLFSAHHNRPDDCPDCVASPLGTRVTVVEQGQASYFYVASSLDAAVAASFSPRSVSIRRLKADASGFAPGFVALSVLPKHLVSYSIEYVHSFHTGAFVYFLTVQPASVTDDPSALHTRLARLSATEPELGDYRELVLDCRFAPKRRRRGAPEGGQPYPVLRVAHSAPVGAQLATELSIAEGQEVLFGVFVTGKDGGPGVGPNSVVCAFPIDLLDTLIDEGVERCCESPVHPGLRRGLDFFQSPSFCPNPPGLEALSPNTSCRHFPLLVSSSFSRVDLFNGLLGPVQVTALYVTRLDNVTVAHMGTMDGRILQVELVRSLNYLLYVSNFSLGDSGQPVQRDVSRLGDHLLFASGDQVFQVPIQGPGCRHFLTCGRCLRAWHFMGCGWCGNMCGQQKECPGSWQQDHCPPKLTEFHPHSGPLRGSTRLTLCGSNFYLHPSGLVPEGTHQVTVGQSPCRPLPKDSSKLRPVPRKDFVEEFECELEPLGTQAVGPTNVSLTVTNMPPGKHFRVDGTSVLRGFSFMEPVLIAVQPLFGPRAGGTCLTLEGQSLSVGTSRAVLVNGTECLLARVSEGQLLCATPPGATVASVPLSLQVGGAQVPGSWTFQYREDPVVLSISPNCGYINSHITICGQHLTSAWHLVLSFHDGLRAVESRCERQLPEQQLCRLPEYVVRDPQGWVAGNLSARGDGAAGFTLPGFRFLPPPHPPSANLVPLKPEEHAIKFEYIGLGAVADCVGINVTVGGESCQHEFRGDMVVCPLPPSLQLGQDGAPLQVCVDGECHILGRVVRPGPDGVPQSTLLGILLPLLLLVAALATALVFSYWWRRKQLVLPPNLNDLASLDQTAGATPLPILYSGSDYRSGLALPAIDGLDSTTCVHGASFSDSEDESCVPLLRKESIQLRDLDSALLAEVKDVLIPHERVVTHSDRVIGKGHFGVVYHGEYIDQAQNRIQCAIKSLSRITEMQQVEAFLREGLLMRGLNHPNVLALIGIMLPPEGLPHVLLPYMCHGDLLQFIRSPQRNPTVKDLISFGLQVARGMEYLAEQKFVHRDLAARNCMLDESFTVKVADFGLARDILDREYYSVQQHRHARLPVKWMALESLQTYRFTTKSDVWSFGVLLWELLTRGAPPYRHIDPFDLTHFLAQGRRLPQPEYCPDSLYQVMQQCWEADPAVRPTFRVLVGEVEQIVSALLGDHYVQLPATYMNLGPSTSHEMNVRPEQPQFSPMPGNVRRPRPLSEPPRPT
Sequence of PAK1 (Q13153 whole entry): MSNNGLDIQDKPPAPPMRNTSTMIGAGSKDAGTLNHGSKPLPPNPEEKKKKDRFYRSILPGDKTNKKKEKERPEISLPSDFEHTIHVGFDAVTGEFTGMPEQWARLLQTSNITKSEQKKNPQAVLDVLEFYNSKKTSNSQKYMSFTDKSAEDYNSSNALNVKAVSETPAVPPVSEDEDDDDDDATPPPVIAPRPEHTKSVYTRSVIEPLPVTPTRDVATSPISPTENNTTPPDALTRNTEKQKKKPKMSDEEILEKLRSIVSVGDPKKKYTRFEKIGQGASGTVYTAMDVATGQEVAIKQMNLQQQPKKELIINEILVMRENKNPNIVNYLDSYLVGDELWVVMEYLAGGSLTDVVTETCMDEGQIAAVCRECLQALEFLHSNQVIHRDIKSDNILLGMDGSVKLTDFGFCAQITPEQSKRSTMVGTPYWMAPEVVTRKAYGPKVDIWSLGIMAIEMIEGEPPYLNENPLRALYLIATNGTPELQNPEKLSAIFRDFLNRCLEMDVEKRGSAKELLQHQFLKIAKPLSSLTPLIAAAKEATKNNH
T8 sequence (Q06418 whole entry): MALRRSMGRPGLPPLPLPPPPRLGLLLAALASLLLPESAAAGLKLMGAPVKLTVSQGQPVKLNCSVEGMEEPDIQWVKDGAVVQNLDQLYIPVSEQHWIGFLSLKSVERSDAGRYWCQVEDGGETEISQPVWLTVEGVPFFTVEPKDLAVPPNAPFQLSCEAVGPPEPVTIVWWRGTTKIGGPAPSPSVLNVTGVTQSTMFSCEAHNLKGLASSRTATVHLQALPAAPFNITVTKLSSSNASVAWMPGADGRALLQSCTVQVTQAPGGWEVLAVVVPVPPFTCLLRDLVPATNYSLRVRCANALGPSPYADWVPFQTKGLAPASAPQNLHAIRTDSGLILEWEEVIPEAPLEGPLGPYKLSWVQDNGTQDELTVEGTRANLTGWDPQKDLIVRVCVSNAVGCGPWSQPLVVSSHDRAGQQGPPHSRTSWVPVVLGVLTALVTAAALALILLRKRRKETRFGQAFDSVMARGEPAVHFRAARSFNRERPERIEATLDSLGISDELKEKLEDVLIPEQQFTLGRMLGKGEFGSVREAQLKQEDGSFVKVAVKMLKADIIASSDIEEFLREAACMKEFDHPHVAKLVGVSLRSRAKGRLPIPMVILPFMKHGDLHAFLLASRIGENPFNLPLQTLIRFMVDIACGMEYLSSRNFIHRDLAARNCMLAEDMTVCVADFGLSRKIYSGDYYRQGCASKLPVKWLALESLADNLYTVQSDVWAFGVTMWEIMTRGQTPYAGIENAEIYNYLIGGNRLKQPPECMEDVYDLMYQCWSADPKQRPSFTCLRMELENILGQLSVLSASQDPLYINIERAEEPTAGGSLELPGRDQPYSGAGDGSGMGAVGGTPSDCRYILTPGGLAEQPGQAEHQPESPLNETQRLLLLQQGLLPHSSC
Sequence of EphB3 (P54753 whole entry): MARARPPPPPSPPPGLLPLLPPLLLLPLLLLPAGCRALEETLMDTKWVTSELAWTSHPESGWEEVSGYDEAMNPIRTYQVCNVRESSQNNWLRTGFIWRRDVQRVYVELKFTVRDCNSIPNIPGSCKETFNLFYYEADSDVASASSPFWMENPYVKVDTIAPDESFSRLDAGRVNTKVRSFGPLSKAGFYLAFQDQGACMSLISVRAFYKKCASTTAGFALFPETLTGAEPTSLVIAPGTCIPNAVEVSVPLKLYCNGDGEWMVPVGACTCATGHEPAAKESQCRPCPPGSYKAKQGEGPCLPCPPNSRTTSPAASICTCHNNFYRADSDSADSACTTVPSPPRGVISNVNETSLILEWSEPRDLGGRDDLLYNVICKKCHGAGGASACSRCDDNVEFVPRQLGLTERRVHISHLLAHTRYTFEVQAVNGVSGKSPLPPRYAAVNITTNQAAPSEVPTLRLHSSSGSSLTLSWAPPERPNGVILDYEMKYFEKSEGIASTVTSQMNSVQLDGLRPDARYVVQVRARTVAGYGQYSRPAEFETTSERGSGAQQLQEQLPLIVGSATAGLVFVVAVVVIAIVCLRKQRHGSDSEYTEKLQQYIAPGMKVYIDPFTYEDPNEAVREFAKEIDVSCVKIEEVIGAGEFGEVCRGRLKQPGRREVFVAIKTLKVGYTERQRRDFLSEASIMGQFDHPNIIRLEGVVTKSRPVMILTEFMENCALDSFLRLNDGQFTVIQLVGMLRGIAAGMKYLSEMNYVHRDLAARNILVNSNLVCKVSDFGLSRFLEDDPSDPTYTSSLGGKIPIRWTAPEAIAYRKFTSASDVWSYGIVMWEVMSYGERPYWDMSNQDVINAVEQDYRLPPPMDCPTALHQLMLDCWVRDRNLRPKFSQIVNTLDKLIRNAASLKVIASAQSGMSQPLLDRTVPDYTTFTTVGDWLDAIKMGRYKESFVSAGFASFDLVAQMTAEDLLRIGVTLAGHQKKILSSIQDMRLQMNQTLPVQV
T2 sequence (O15264 whole entry): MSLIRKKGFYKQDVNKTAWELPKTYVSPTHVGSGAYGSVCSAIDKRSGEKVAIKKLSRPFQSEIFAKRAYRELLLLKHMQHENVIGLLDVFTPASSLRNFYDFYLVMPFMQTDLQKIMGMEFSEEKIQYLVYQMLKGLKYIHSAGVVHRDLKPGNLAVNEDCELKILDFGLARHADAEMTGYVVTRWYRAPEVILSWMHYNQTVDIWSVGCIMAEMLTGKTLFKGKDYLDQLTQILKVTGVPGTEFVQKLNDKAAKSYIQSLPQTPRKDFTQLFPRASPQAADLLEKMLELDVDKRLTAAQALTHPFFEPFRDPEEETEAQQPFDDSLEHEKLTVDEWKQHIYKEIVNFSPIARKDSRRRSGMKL
T17 sequence (Q9UQB9 whole entry): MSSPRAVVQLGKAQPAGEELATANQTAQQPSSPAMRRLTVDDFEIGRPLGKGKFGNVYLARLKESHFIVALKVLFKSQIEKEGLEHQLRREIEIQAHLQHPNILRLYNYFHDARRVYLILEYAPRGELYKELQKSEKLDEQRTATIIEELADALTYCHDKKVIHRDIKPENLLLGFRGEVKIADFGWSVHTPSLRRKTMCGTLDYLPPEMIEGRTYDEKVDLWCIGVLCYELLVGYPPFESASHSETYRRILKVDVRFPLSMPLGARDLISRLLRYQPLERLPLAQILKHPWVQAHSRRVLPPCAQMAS

inhibition [1]: -1.5%
inhibition [2]: 5.5%
inhibition [3]: 5%
inhibition [4]: 16%
inhibition [5]: -5.5%
inhibition [6]: 2.5%
inhibition [7]: 2%
inhibition [8]: 15.5%
inhibition [9]: 6%
inhibition [10]: 5.5%
inhibition [11]: -2.5%
inhibition [12]: -1.5%
inhibition [13]: 2.5%
inhibition [14]: 2.5%
inhibition [15]: 3.5%
inhibition [16]: 53%
inhibition [17]: 10.5%
inhibition [18]: -9.5%
inhibition [19]: 3.5%
inhibition [20]: 8%
inhibition [21]: -2.5%
inhibition [22]: 6%
inhibition [23]: 10.5%
inhibition [24]: 25%
inhibition [25]: 28%
inhibition [26]: 6.5%
inhibition [27]: 37.5%
inhibition [28]: -6%
inhibition [29]: 1.5%
inhibition [30]: 20%
inhibition [31]: 6%
inhibition [32]: 2.5%
inhibition [33]: 8.5%
inhibition [34]: 22.5%
inhibition [35]: 7%
inhibition [36]: 24.5%
inhibition [37]: 1.5%
inhibition [38]: 6%
Compound: CC(C)(O)CC(=O)NCCn1ccc2ncnc(Nc3ccc(Oc4cccc(C(F)(F)F)c4)c(Cl)c3)c21 [TAK-285]
